In patent US10183032B2, “Methods for treating bacterial infection” (Ball State Innovation Corporation, priority 2012, dated 2019):

Tests used:
[1] = tested on: Staphylococcus aureus; test: Staphylococcus aureus host cell invasion assay in HUVEC, flow cytometry; format: cell-based; settings: HUVEC; for Internalized bacteria (% control ± SEM), Structural analog: 10 μM in PEG, 18-20 hours prior to infection, fluorescently labeled S. aureus 1 hour; for inhibition of invasion compared with ML 141 (Table 1): 10 μM, flow cytometry; for activity at 10 µM: Staphylococcus aureus, 1 h, read-out: Internalized bacteria (% control ± SEM), Structural analog
Experimental: In one embodiment, human umbilical vein endothelial cells (HUVEC, Life Technologies) are cultured in M200 medium supplemented with LSGS. RAW 264.7 cells (American Type Culture Collection, ATCC, Manassas, Va.) are cultured in RPMI supplemented with 10% FBS and L-glutamine. All cell types are maintained at 5% CO2, 37° C., in 75 cm^2 vented cap flasks (Thermo-Fisher). For assays, cultured cells are plated at 1×10^5 cells/ml in 35 mm culture dishes coated with Attachment Factor. The next day, cells are pretreated in culture medium containing the vehicle control or ML 141. For compound delivery, ML 141 first is suspended into DMSO or into PEG at a concentration of 5 mM. The 5 mM solution is diluted to 1 mM in the solvent and then diluted to the final concentration for each experiment in either serum-containing or serum-free medium. For vehicle control treatment, the same volume of PEG or DMSO as that of ML 141 is added to medium. The following day, the invasion assay is performed. For the shorter duration experiments, compound is added on the same day as the invasion assay, 1 hour prior to bacteria.
In another embodiment, HUVEC (Millipore, Billerica, Mass.) are cultured in EndoGRO LS Complete Media (Millipore) and are maintained at 5% CO2, 37° C., in 75 cm^2 vented cap flasks (Thermo-Fisher). For the invasion assay, cultured cells are plated at 1×10^4 cells/ml in 96-well culture dishes coated with Attachment Factor. The next day, cells are pretreated in culture medium containing the vehicle control, ML 141, or ML 141 structural analog. For compound delivery, ML 141 and structural analogs first are suspended into PEG at a concentration of 5 mM. The 5 mM solution is diluted to 1 mM in the solvent and then is diluted to the final concentration for each experiment in serum containing medium. For vehicle control treatment, the same volume of PEG as that of ML 141 or of ML 141 structural analog is added to the medium. The following day, the invasion assay is performed. Bacteria are added directly to medium containing vehicle control, ML 141, or the ML 141 structural analog.
Two days prior to the assay, TSB is inoculated with S. aureus (American Type Culture Collection #29213) and incubated overnight (225 rpm, 37° C.). Bacteria are subcultured the next day into fresh TSB. On the day of the assay, bacteria are pelleted (10000×g, 37° C., 3 min), are washed in saline, are pelleted as above, are resuspended in saline, then fluorescently labeled by incubation with rabbit anti-mouse IgG Alexa Fluor 488 (final concentration 8 μg/ml, RT, 20 min). Protein A, a S. aureus cell surface protein, avidly binds IgG thereby labeling the bacteria. Labeled bacteria are washed twice as above and are resuspended to 3×10^8 CFU/ml in saline. Host cells are incubated with the bacteria for 1 hour (1.2×10^8 CFU/ml for same-day recovery, 5×10^6 for recovery after 48 hours, 1.4×10^7 CFU/ml; 5% CO2, 37° C.). Following infection, extracellular bacteria are removed by extensive washes with PBS and incubation of the host cells with antimicrobials that have limited mammalian membrane permeability (lysostaphin, 20 μg/ml and gentamicin, 50 μg/ml; 45 min for same-day recovery studies, 48 hours for 2-day recovery studies; 5% CO2, 37° C.). To detect the level of infection using flow cytometry, cells that have been infected with fluorescently-labeled bacteria are washed extensively with PBS, lifted from 96-well plate by incubation with trypsin, washed extensively in FACS buffer (2% BSA/0.1% sodium azide/PBS), fixed (FACS buffer containing 0.74% formaldehyde), and are counted using an Accuri flow cytometer (BD, Franklin Lakes, N.J.). They are also lifted from culture dishes using cell scrapers, pelleted, fixed (1% BSA/0.74% formaldehyde/PBS), and are counted using an Accuri flow cytometer. For enumeration of the infecting bacteria, intracellular bacteria are released from host cells using 1% saponin/PBS (20 min, 5% CO2, 37° C.) and serial dilutions are plated on TSA (16 hours, 37° C.). […]

[2] = tested on: Human umbilical vein endothelial cells; test: Cytotoxicity by propidium iodide exclusion, HUVEC; format: cell-based; settings: for Cytotoxicity (in words): 10 μM, 18-20 h, Tables 4 and 5; for Mean fluorescence intensity (×10^4 ± SEM), Compound (10 μM): HUVEC pretreated 18-20 h
[3] = tested on: Staphylococcus aureus; test: Assessment of bactericidal activity (HUVEC media); format: cell-based; settings: for CFU (×10^8 ± SEM), Compound (10 μM): 1.2 × 10^8 CFU S. aureus, 1 h in HUVEC media
Experimental: FIG. 6B illustrates that neither cytotoxicity nor bactericidal activity is detected. Cultures of Staphylococcus aureus that had been incubated with the vehicle control DMSO or with ML 141 (1 hour, 37° C., 225 rpm) were serially diluted, plated onto blood agar, and incubated (18 hours, 37° C.). Colonies were enumerated and colony forming units (CFU)/ml determined. CFU/ml were not different amongst the groups (p>0.05 by t-test; n=2/treatment). […]

[4] = target: CDC42 (Homo sapiens, UniProt P60953); test: BODIPY-FL-GTP binding to CDC42
CDC42, sequence (P60953 whole entry): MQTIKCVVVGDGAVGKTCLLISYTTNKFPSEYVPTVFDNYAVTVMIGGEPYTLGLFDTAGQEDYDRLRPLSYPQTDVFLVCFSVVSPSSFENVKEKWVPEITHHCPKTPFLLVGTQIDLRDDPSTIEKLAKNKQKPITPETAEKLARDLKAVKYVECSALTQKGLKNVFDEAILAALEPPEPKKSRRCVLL

[5] = tested on: Staphylococcus aureus; test: Intracellular bacteria per host cell (HUVEC), fluorescence microscopy; format: cell-based; settings: 10 μmol/L, 18-20 h, 100 cells counted
[6] = tested on: RAW 264.7 cells; test: Cytotoxicity by propidium iodide, RAW 264.7 cells; format: cell-based; settings: RAW 264.7 pretreated 18-20 h
[7] = tested on: Staphylococcus aureus; test: Assessment of bactericidal activity (DMEM, 10% fetal bovine serum); format: cell-based; settings: 3.2 × 10^6 CFU S. aureus, 1 h in DMEM with 10% fetal bovine serum; head prints 20 mM

Compound	Internalized bacteria (% control ± SEM), Structural analog [1] [% % control]	Mean fluorescence intensity (×10^4 ± SEM), Compound (10 μM) [2]	CFU (×10^8 ± SEM), Compound (10 μM) [3]	Intracellular bacteria/cell (±SEM), Structural analog [5] [bacteria/cell]	Mean fluorescence intensity (×10^3 ± SEM), Compound (10 μM) [6]	CFU/mL (×10^9 ± SEM), Compound [7]	also measured
COc1ccc(C2=NN(c3ccc(S(N)(=O)=O)cc3)C(c3ccc(Cl)cc3)C2)cc1 (stereo not shown) [RSM 04]	11 ± 1	4.6 ± 0.2 ×10^4	3.8 ± 0.8 ×10^8 CFU	–	–	–	inhibition of invasion compared with ML 141 (Table 1) [1]: inhibited invasion more than ML 141; Cytotoxicity (in words) [2]: cytotoxic
NS(=O)(=O)c1ccc(N2N=C(c3ccccc3)CC2c2ccc3c(c2)OCO3)cc1 (stereo not shown) [RSM 05]	–	3.9 ± 0.2 ×10^4	8.0 ± 1.7 ×10^8 CFU	–	–	–	activity at 10 µM [1]: 38 ± 3%; IC50 [4]: 3.4 µM
COc1ccc(C2=NN(c3ccc(S(N)(=O)=O)cc3)C(c3ccccc3)C2)cc1 (stereo not shown) [RSM 07]	–	2.5 ± 0.4 ×10^4	11.5 ± 1.1 ×10^8 CFU	–	–	–	activity at 10 µM [1]: 34 ± 2%; GTP binding (IC50) [4]: only slightly higher; IC50 [4]: 6.2 µM
COCCOc1ccc(C2CC(c3ccccc3)=NN2c2ccc(S(N)(=O)=O)cc2)cc1 (stereo not shown) [RSM 11]	61 ± 2	–	–	–	–	–	–
COCCOc1ccc(C2CC(c3ccc(OC)cc3)=NN2c2ccc(S(N)(=O)=O)cc2)cc1 (stereo not shown) [RSM 12]	57 ± 3	–	–	–	–	–	–
COc1cc(C2CC(c3ccccc3)=NN2c2ccc(S(N)(=O)=O)cc2)cc(OC)c1OC (stereo not shown) [RSM 13]	62 ± 5	–	–	–	–	–	–
COc1ccc(C2=NN(c3ccc(S(N)(=O)=O)cc3)C(c3cc(OC)c(OC)c(OC)c3)C2)cc1 (stereo not shown) [RSM 14]	71 ± 3	–	–	–	–	–	–
COc1ccc(C2CC(c3ccccc3)=NN2c2ccc(S(N)(=O)=O)cc2)cc1OC (stereo not shown) [RSM 15]	–	4.0 ± 0.4 ×10^4	10.1 ± 1.0 ×10^8 CFU	–	–	–	inhibition of invasion compared with ML 141 (Table 1) [1]: inhibited invasion more than ML 141; activity at 10 µM [1]: 45 ± 1%; IC50 [4]: 2.2 µM
COCCOc1ccc(C2=NN(c3ccc(S(N)(=O)=O)cc3)C(c3ccc(OC)cc3)C2)cc1 (stereo not shown) [RSM 17]	67 ± 8	–	–	–	–	–	–
COCCOc1ccc(C2=NN(c3ccc(S(N)(=O)=O)cc3)C(c3ccc(OCCOC)cc3)C2)cc1 (stereo not shown) [RSM 18]	76 ± 7	–	–	–	–	–	–
COc1ccc(C2C(C)C(c3ccccc3)=NN2c2ccc(S(N)(=O)=O)cc2)cc1 (stereo not shown) [RSM 19]	–	2.6 ± 0.01 ×10^4	9.4 ± 1.0 ×10^8 CFU	–	–	–	activity at 10 µM [1]: 61 ± 2%; IC50 [4]: 13.5 µM
COCCOc1ccc(C2=NN(c3ccc(S(N)(=O)=O)cc3)C(c3ccc(Cl)cc3)C2)cc1 (stereo not shown) [RSM 20]	–	2.1 ± 0.2 ×10^4	10.0 ± 0.2 ×10^8 CFU	–	–	–	activity at 10 µM [1]: 61 ± 4%; IC50 [4]: 46.5 µM
COc1ccc(C2C3Cc4ccccc4C3=NN2c2ccc(S(N)(=O)=O)cc2)cc1 (stereo not shown) [RSM 21]	–	2.8 ± 0.09 ×10^4	15.0 ± 1.1 ×10^8 CFU	–	–	–	activity at 10 µM [1]: 79 ± 3%; GTP binding (IC50) [4]: only slightly higher; IC50 [4]: 5.5 µM
COc1ccc(C2(C)CC(c3ccccc3)=NN2c2ccc(S(N)(=O)=O)cc2)cc1 (stereo not shown) [RSM 26]	40 ± 3	26.8 ± 2.1 ×10^4	0.8 ± 1.1 ×10^8 CFU	–	–	–	Cytotoxicity (in words) [2]: cytotoxic; Bactericidal activity (in words) ([3]; S. aureus incubated 1 h with compound, FIG. 6B, Tables 6 and 7): bactericidal
COc1ccc(CCC(=NNc2ccc(S(N)(=O)=O)cc2)c2ccccc2)cc1 [RSM 27]	–	–	–	4.4 ± 0.5	1.0 ± 0.1 ×10^3	2.4 ± 0.6 ×10^9 CFU/mL	–
CN(C)c1ccc(C2CC(c3ccccc3)=NN2c2ccc(S(N)(=O)=O)cc2)cc1 (stereo not shown) [RSM 28]	–	–	–	1.4 ± 0.3	11 ± 2.0 ×10^3	1.8 ± 0.05 ×10^9 CFU/mL	–
CC(=O)Nc1ccc(C2CC(c3ccccc3)=NN2c2ccc(S(N)(=O)=O)cc2)cc1 (stereo not shown) [RSM 29]	–	–	–	2.4 ± 0.4	4.2 ± 0.3 ×10^3	1.4 ± 0.1 ×10^9 CFU/mL	–
COc1ccc(C2CC(c3cccc(NC(C)=O)c3)=NN2c2ccc(S(N)(=O)=O)cc2)cc1 (stereo not shown) [RSM 30]	–	–	–	1.7 ± 0.3	2.4 ± 0.4 ×10^3	1.5 ± 0.02 ×10^9 CFU/mL	–
COc1ccc(C2CC(c3ccc(NC(C)=O)cc3)=NN2c2ccc(S(N)(=O)=O)cc2)cc1 (stereo not shown) [RSM 31]	–	–	–	1.4 ± 0.4	2.4 ± 0.3 ×10^3	0.9 ± 0.09 ×10^9 CFU/mL	–
CCC(=O)Nc1ccc(C2=NN(c3ccc(S(N)(=O)=O)cc3)C(c3ccc(OC)cc3)C2)cc1 (stereo not shown) [RSM 32]	–	–	–	5.5 ± 0.4	2.8 ± 1.1 ×10^3	2.4 ± 0.3 ×10^9 CFU/mL	–
CCC(=O)Nc1cccc(C2=NN(c3ccc(S(N)(=O)=O)cc3)C(c3ccc(OC)cc3)C2)c1 (stereo not shown) [RSM 33]	–	–	–	5.4 ± 0.4	2.9 ± 1.1 ×10^3	1.3 ± 0.04 ×10^9 CFU/mL	–
